In US10591491B1, “Blood biomarker for early blood brain barrier disruption in ischemic stroke” (STC.UNM, priority 2011, dated 2020):
Entries after “also recorded” stand apart in the source; their conditions may differ.

Legend:
bEND3 cells [1] = assay: OGD-induced occludin degradation in bEND3 cells, Western blot of total cellular extracts; assay type: cell-based, Mouse
Experimental: (§1) Cell culture. Mouse brain microvascular endothelial cells bEND3 (American Type Culture Collection) were grown as a monolayer in DMEM with 15% fetal bovine serum (FBS), 100 U/ml penicillin and 100 μg/ml streptomycin at 37° C. in a humidified incubators with 5% CO2 and 95% room air. The cells were subcultured into 60 mm dishes coated with type I collagen (Nakamuta et al., 2005) and allowed to grow to confluence before exposure to OGD for 2 h. After OGD treatment, cell toxicity was measured by lactate dehydrogenase (LDH) assay using a CytoTox 96 Non-Radioactive Cytotoxicity Assay Kit (Promega). Besides endothelial cells, we also tested the effect of OGD on MMP-2/9 secretion in two mouse neural cell lines, C8-D1A (astrocyte) and […]. Both cell lines were purchased from American Type Culture Collection. C8-D1A cells and SH-SY5Y cells were cultured in DMEM or DMEM/F12 (1:1) (Sigma) containing 10% FBS, 100 U/ml penicillin and 100 μg/ml streptomycin, respectively. These cells were allowed to grow to 80-90% confluence before exposure to 2-h OGD treatment.
(§2) OGD treatment. To mimic acute ischemia-like conditions in vitro, bEND3 cells were exposed to OGD for 2 h as we described previously (Furuichi et al., 2005). […] The oxygen concentration was below 0.2% as monitored by an oxygen analyzer (Sable Systems). […]

bEND3 cells [2] = assay: Immunostaining of occludin in OGD-treated bEND3 cells (confocal); assay type: cell-based, Mouse
Experimental: as §1, §2

bEND3 cells [3] = assay: OGD-induced claudin-5 redistribution between subcellular fractions, Western blot; assay type: cell-based, Mouse; settings: SB-3CT, 2 h OGD; Western blot of subcellular fractions
Experimental: OGD treatment. To mimic acute ischemia-like conditions in vitro, bEND3 cells were exposed to OGD for 2 h as we described previously (Furuichi et al., 2005). In brief, confluent bEND3 cells were subjected to an ischemic injury by transferring cultures to glucose free medium (DMEM without glucose) pre-equilibrated with 95% N2 and 5% CO2. Cells were then incubated in a humidified airtight chamber (Billups-Rothberg Inc.) equipped with an air lock and flushed with 95% N2 and 5% CO2 for 15 min. The chamber was then sealed and kept at 37° C. for another 105 min. The oxygen concentration was below 0.2% as monitored by an oxygen analyzer (Sable Systems). Control cultures were incubated with normal DMEM medium without FBS for 2 h at 37° C. in 95% air and 5% CO2. Immediately after OGD treatment, the conditioned media (CM) and cells were collected separately for further analyses.
Preparation of total cell lysate, subcellular fractions. To reveal a redistribution of MMP-2/9, Caveolin-1 (Cav-1) and TJ proteins in OGD-treated bEnd3 cells, three subcellular fractions including membranous, cytosolic, and cytoskeletal fractions were extracted using ProteoExtract Subcellular Proteome Extraction Kit (Calbiochem) according to manufacturer's instruction. […]

occludin = molecular target: T1, occludin (UniProt Q61146)
T1 sequence: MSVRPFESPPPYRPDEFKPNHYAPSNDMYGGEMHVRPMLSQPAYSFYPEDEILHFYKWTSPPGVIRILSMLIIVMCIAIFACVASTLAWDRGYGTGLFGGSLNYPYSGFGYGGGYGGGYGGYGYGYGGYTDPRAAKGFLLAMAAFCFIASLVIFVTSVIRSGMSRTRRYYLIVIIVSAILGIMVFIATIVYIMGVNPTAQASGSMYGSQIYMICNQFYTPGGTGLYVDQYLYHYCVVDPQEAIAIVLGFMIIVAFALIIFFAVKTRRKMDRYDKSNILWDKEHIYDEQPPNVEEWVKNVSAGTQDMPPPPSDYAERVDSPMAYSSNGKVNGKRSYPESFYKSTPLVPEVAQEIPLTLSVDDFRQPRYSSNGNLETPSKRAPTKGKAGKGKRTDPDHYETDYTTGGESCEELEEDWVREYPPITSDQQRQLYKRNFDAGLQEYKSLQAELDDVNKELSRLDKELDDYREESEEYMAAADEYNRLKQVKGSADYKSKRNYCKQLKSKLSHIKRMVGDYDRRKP

[4] = tPA thrombolysis, cited from earlier work

O=S(=O)(CC1CS1)c1ccc(Oc2ccccc2)cc1 (centres unmarked) [SB-3CT]
OGD-induced occludin degradation (occludin protein in total cellular extracts) (bEND3 cells [1]; SB-3CT 10 μM, 2 h before and during 2 h OGD, Western blot, vs vehicle (DMSO) plus OGD): completely abolished OGD-induced occludin reduction; also recorded: completely inhibited OGD-induced occludin degradation
occludin level in control (non-OGD) bEND3 cells (bEND3 cells [1]; SB-3CT-treated control cells compared to vehicle-treated cells (DMSO)): slight increase (not statistically significant) in occludin level
occludin immunostaining reduction in OGD-treated cells (bEND3 cells [2]; SB-3CT pretreatment, 2 h OGD, confocal microscopy): completely inhibited occludin reduction in OGD-treated cells
occludin immunostaining in control cells (bEND3 cells [2]; SB-3CT-treated control cells vs vehicle-treated control cells): slight stronger immunostaining (brighter fluorescence) for occludin
OGD-induced claudin-5 redistribution between subcellular fractions (bEND3 cells [3]): had no effect on its redistribution between subcellular fractions; also recorded: had no effect on OGD-induced claudin-5 redistribution

active MMP-9
occludin degradation in bEND3 extracts (occludin): active MMP-9-induced occludin degradation

tPA: tissue plasminogen activator, the only FDA-approved therapy for acute ischemic stroke
mortality rate in stroke patients who have such bleeding ([4]; patients with symptomatic ICH): 50%
increase in the incidence of symptomatic ICH ([4]; stroke patients): 10 fold
